Species: Rattus norvegicus
Experiment: DrugMatrix - Regimen: Daily Repeat
Format: toxicity, organism-based, Sprague-Dawley
Set-up: regimen Daily Repeat, gender Male, age 6-8 weeks
Details: in vivo, po, route oral GAVAGE, vehicle 100 % WATER; for ABSOLUTE BASOPHIL / ABSOLUTE EOSINOPHIL / ABSOLUTE LYMPHOCYTE / ABSOLUTE MONOCYTE / ABSOLUTE SEGMENTED NEUTROPHIL / BASOPHIL / EOSINOPHIL / ERYTHROCYTE COUNT / HEMATOCRIT / HEMOGLOBIN / LEUKOCYTE COUNT / LYMPHOCYTE / MEAN CORPUSCULAR HEMOGLOBIN / MEAN CORPUSCULAR HEMOGLOBIN CONCENTRATION / MEAN CORPUSCULAR VOLUME / MONOCYTE / NEUTROPHIL / NUCLEATED RED BLOOD CELLS / PLATELET COUNT: tissue Blood; for ALANINE AMINOTRANSFERASE / ALBUMIN / ALKALINE PHOSPHATASE / ASPARTATE AMINOTRANSFERASE / BLOOD UREA NITROGEN / CARBON DIOXIDE / CHLORIDE / CHOLESTEROL / CREATINE PHOSPHOKINASE / CREATININE / GLUCOSE / LACTATE DEHYDROGENASE / LIPASE / PHOSPHORUS / POTASSIUM / SODIUM / TOTAL BILIRUBIN / TOTAL PROTEIN / URIC ACID: tissue Plasma
[1] = 100 mg/kg, 120 h, dose level Low, time 5 day
[2] = 2500 mg/kg, 72 h, dose level High, time 3 day
[3] = 2500 mg/kg, 120 h, dose level High, time 5 day

With `NCC1(CC(=O)O)CCCCC1` [GABAPENTIN] the “ABSOLUTE BASOPHIL” value [1] was 0 CELLS/uL, the “ABSOLUTE EOSINOPHIL” value [1] was 0 CELLS/uL and the “ABSOLUTE LYMPHOCYTE” value [1] was 13861.67 CELLS/uL. The “ABSOLUTE MONOCYTE” value [1] was 159 CELLS/uL, the “ABSOLUTE SEGMENTED NEUTROPHIL” value [1] was 1246 CELLS/uL and the BASOPHIL [1] was 0%. For the same molecule, the EOSINOPHIL [1] was 0%, the “ERYTHROCYTE COUNT” value [1] was 5.64 x10E6/uL and the HEMATOCRIT [1] was 35.7%. For the same molecule, the HEMOGLOBIN [1] was 14.27 G/DL, the “LEUKOCYTE COUNT” value [1] was 15.27 x10E3/uL and the LYMPHOCYTE [1] was 91%. For the same molecule, the “MEAN CORPUSCULAR HEMOGLOBIN” value [1] was 25.33 pg, the “MEAN CORPUSCULAR HEMOGLOBIN CONCENTRATION” value [1] was 39.97 G/DL and the “MEAN CORPUSCULAR VOLUME” value [1] was 63.33 fL. The MONOCYTE [1] was 1%, the NEUTROPHIL [1] was 8% and the “NUCLEATED RED BLOOD CELLS” value [1] was 0 /100WBC. The “PLATELET COUNT” value [1] was 1093 x10E3/uL, the “ALANINE AMINOTRANSFERASE” value [1] was 54.67 u/L and the ALBUMIN [1] was 4.37 G/DL. The “ALKALINE PHOSPHATASE” value [1] was 380.67 u/L, the “ASPARTATE AMINOTRANSFERASE” value [1] was 86 u/L and the “BLOOD UREA NITROGEN” value [1] was 15.67 mg/dL. For the same molecule, the “CARBON DIOXIDE” value [1] was 31.33 mmol/L, the CHLORIDE [1] was 101.67 MEQ/L and the CHOLESTEROL [1] was 72.33 mg/dL. For the same molecule, the “CREATINE PHOSPHOKINASE” value [1] was 410.33 u/L, the CREATININE [1] was 0.16 mg/dL and the GLUCOSE [1] was 172.67 mg/dL. The “LACTATE DEHYDROGENASE” value [1] was 185.67 u/L, the LIPASE [1] was 9.67 u/L and the PHOSPHORUS [1] was 11.93 mg/dL. The POTASSIUM [1] was 6 MEQ/L, the SODIUM [1] was 144.93 MEQ/L and the “TOTAL BILIRUBIN” value [1] was 0.1 mg/dL. For the same molecule, the “TOTAL PROTEIN” value [1] was 6.07 G/DL, the “URIC ACID” value [1] was 1.23 mg/dL and the “ABSOLUTE BASOPHIL” value [2] was 0 CELLS/uL. The “ABSOLUTE EOSINOPHIL” value [2] was 0 CELLS/uL, the “ABSOLUTE LYMPHOCYTE” value [2] was 17008 CELLS/uL and the “ABSOLUTE MONOCYTE” value [2] was 0 CELLS/uL. For the same molecule, the “ABSOLUTE SEGMENTED NEUTROPHIL” value [2] was 1925.33 CELLS/uL, the BASOPHIL [2] was 0% and the EOSINOPHIL [2] was 0%. The “ERYTHROCYTE COUNT” value [2] was 5.55 x10E6/uL, the HEMATOCRIT [2] was 36.63% and the HEMOGLOBIN [2] was 14.27 G/DL. The “LEUKOCYTE COUNT” value [2] was 18.93 x10E3/uL, the LYMPHOCYTE [2] was 90% and the “MEAN CORPUSCULAR HEMOGLOBIN” value [2] was 25.7 pg. The “MEAN CORPUSCULAR HEMOGLOBIN CONCENTRATION” value [2] was 38.93 G/DL, the “MEAN CORPUSCULAR VOLUME” value [2] was 66.03 fL and the MONOCYTE [2] was 0%. The NEUTROPHIL [2] was 10%, the “NUCLEATED RED BLOOD CELLS” value [2] was 0.33 /100WBC and the “PLATELET COUNT” value [2] was 1357 x10E3/uL. The “ALANINE AMINOTRANSFERASE” value [2] was 70.67 u/L, the ALBUMIN [2] was 4.47 G/DL and the “ALKALINE PHOSPHATASE” value [2] was 324.33 u/L. For the same molecule, the “ASPARTATE AMINOTRANSFERASE” value [2] was 79.67 u/L, the “BLOOD UREA NITROGEN” value [2] was 15 mg/dL and the “CARBON DIOXIDE” value [2] was 30.67 mmol/L. The CHLORIDE [2] was 99.67 MEQ/L, the CHOLESTEROL [2] was 90 mg/dL and the “CREATINE PHOSPHOKINASE” value [2] was 203.33 u/L. For the same molecule, the CREATININE [2] was 0.15 mg/dL, the GLUCOSE [2] was 164.33 mg/dL and the “LACTATE DEHYDROGENASE” value [2] was 162 u/L. For the same molecule, the LIPASE [2] was 11.33 u/L, the PHOSPHORUS [2] was 13.37 mg/dL and the POTASSIUM [2] was 6.75 MEQ/L. The SODIUM [2] was 143.83 MEQ/L, the “TOTAL BILIRUBIN” value [2] was 0.1 mg/dL and the “TOTAL PROTEIN” value [2] was 6.13 G/DL. For the same molecule, the “URIC ACID” value [2] was 2.23 mg/dL, the “ABSOLUTE BASOPHIL” value [3] was 0 CELLS/uL and the “ABSOLUTE EOSINOPHIL” value [3] was 0 CELLS/uL. For the same molecule, the “ABSOLUTE LYMPHOCYTE” value [3] was 12458 CELLS/uL, the “ABSOLUTE MONOCYTE” value [3] was 100 CELLS/uL and the “ABSOLUTE SEGMENTED NEUTROPHIL” value [3] was 1842 CELLS/uL. For the same molecule, the BASOPHIL [3] was 0%, the EOSINOPHIL [3] was 0% and the “ERYTHROCYTE COUNT” value [3] was 5.12 x10E6/uL. The HEMATOCRIT [3] was 32.03%, the HEMOGLOBIN [3] was 13.13 G/DL and the “LEUKOCYTE COUNT” value [3] was 14.4 x10E3/uL. For the same molecule, the LYMPHOCYTE [3] was 86.33%, the “MEAN CORPUSCULAR HEMOGLOBIN” value [3] was 25.67 pg and the “MEAN CORPUSCULAR HEMOGLOBIN CONCENTRATION” value [3] was 41 G/DL. For the same molecule, the “MEAN CORPUSCULAR VOLUME” value [3] was 62.57 fL, the MONOCYTE [3] was 0.67% and the NEUTROPHIL [3] was 13%. The “NUCLEATED RED BLOOD CELLS” value [3] was 0 /100WBC, the “PLATELET COUNT” value [3] was 1217 x10E3/uL and the “ALANINE AMINOTRANSFERASE” value [3] was 71.67 u/L. The ALBUMIN [3] was 4.3 G/DL, the “ALKALINE PHOSPHATASE” value [3] was 373 u/L and the “ASPARTATE AMINOTRANSFERASE” value [3] was 84.67 u/L. The “BLOOD UREA NITROGEN” value [3] was 19.67 mg/dL, the “CARBON DIOXIDE” value [3] was 28.67 mmol/L and the CHLORIDE [3] was 102.33 MEQ/L. For the same molecule, the CHOLESTEROL [3] was 64 mg/dL, the “CREATINE PHOSPHOKINASE” value [3] was 156 u/L and the CREATININE [3] was 0.17 mg/dL. For the same molecule, the GLUCOSE [3] was 148.33 mg/dL, the “LACTATE DEHYDROGENASE” value [3] was 96.67 u/L and the LIPASE [3] was 8 u/L. For the same molecule, the PHOSPHORUS [3] was 11.7 mg/dL, the POTASSIUM [3] was 6.37 MEQ/L and the SODIUM [3] was 144.6 MEQ/L. The “TOTAL BILIRUBIN” value [3] was 0.17 mg/dL, the “TOTAL PROTEIN” value [3] was 6.03 G/DL and the “URIC ACID” value [3] was 1.33 mg/dL.
